Assay results taken from US12295937B2, “Psychoactive medicines and their use for treating psychiatric and neurological conditions and disorders” (Transcend Therapeutics, Inc., priority 2021, dated 2025).
Marks after values point to notes of the source that are not given here.

Experiments:
[1] = Methylone case series, Cohorts 1 and 2 (CGI-S/CGI-I, safety); format: in vivo, human
Protocol: CGI-S scale was also evaluated in a subset of patients from Cohort 2 post-treatment. Cohort 2 was evaluated for any observed or reported safety events following a single dosing session. Clinical Global Improvement Scale • Clinical Global Impressions (CGI) scale includes 2 components: CGI-S (“severity”) and CGI-I (“improvement”).
Only sessions that included methylone dosing were counted as dosing sessions.
Single sessions occurred for 8 of the 28 cases with no booster in two of these cases. In the remainder of the cases, multiple sessions occurred, and booster doses were used in all or some of the remaining patients ([…]) with multiple booster doses used in some or all of the sessions in 15 patients.

[2] = Methylone PTSD case series with long-term follow-up (CGI-I, safety); format: in vivo, human
Source text: The patients were not given structured psychotherapy in conjunction with methylone treatment, which differs from recent studies of MDMA that emphasize the importance of a manualized psychedelic-assisted psychotherapy model.
No protected health information was disclosed, and no consent was obtained from patients for use of their archival data. Case narratives were systematically compiled from data collected as part of routine clinical work. Diagnoses were confirmed by an experienced clinician using semi-structured interviews. Baseline symptom severity was evaluated using the Clinical Global Impressions Scale-Severity (CGI-S). Symptom improvement was evaluated using the Clinical Global Impressions Scale-Improvement (CGI-I) following dosing. […] Because these case narratives were examined retrospectively from routine clinical care records, and not gathered prospectively in a research study, more specific validated rating scales for assessing PTSD symptoms were not available. Additionally, follow-up varied, with the length of follow-up ranging from one week (Case 2) to 15 years (Case 16).
Dosing summary: Methylone was administered orally. Other medications were not changed during methylone treatment. […] In several cases, treatment was continued, and, in some cases, the dose was further escalated in later sessions (see Table 5). Booster doses were included for 19 patients in one or more of the sessions. Starting doses were between 100 and 270 mg, and these as well as booster doses were selected based on clinical judgement.

[3] = biological target: Human serotonin 5HT2B receptor (Homo sapiens, UniProt P41595); test: Competitive radioligand binding to 5HT2B receptor membranes
Protocol: Human serotonin 5HT2B receptor membrane preparations were divided into aliquots. On the day of the assay, membranes were diluted at 1:200 in incubation buffer. […] To each well was added 150 μL membrane preparation, 50 μL test compound, non-specific compound, or buffer alone, as well as 50 μL radioligand. The plate was incubated at 35° C. for 90 minutes with gentle agitation. […] For each concentration of drug, non-specific binding was subtracted from total binding to give specific binding. […] Ki was subsequently calculated using the ChengPrusoff equation.

Human serotonin 5HT2B receptor, sequence (P41595 whole entry): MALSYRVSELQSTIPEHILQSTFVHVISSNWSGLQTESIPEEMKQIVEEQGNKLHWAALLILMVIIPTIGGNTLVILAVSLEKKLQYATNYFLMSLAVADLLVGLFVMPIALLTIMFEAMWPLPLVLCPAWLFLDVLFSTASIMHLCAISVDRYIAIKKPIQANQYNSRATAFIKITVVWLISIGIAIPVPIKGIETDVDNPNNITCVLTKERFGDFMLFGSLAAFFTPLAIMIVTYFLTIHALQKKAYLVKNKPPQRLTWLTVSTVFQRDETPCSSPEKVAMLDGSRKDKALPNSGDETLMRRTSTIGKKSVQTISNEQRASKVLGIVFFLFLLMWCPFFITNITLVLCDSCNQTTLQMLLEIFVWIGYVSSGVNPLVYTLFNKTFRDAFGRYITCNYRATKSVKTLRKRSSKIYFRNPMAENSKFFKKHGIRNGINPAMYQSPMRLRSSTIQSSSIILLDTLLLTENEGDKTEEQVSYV

What does the source list for `CNC(C)C(=O)c1ccc2c(c1)OCO2` (stereo not shown) [Methylone, 3,4-methylenedioxy-N-methylcathinone]?
Adverse effects in healthy subjects ([1]; Cohort 1, 4 subjects, single session, total dose 790 or 870 mg): no adverse effects or after-effects were observed or reported; Cases well tolerated with no safety events reported ([1]; Cohort 2, 25 of 28 cases): 89.3%; Patients with initial improvement at the first methylone session ([1]; Cohort 2, 25 of 28 patients): ~90%; Number of cases with CGI-I 2 ([1]; Cohort 2, N = 28): 13; Number of cases with CGI-I 3 ([1]; Cohort 2, N = 28): 4; Number of cases with CGI-I 4 ([1]; Cohort 2, N = 28): 0; Number of cases with CGI-I 5 ([1]; Cohort 2, N = 28): 0; Number of cases with CGI-I 6 ([1]; Cohort 2, N = 28): 0; Number of cases with CGI-I 7 ([1]; Cohort 2, N = 28): 0; Number of cases with CGI-I 1 (highest observed magnitude of improvement) ([1]; Cohort 2, N = 28 PTSD/MDD patients, oral): 11*; Patients achieving CGI-I 1 or 2 ([1]; Cohort 2 overall): 86%; Cases reporting a durable effect ([1]; MDD subset, 6 narratives with durability information): 5; Patients achieving CGI-I 1 or 2 ([1]; MDD subset, 8/8 patients): 100%; Patients achieving CGI-I 1 or 2 ([1]; PTSD subset, 16/20 patients): 80%; Case narratives reporting a durable effect ([1]; PTSD subset, 16 narratives with durability information): 15; Adverse events noted ([2]; 21 PTSD patients): four adverse events were noted in three of the 21 patients; Patients much improved or very much improved per CGI-I ([2]; 21 PTSD patients): 81%; Patients reporting a durable effect ([2]; of 17 patients with durability information): 16; Patients achieving CGI-I 1 (very much improved) ([2]; of 21 PTSD patients): 9 patients; Patients achieving CGI-I 2 (much improved) ([2]; of 21 PTSD patients): 8 patients; Patients achieving a CGI-I of 1 or 2 ([2]; of 21 PTSD patients): 17 patients; Patients achieving CGI-I 1 or 2 ([2]; patients with a single dose session (n=9)): 89%; Patients with initial improvement after the initial session ([2]; patients with multiple dosing sessions (n=12)): 83%; IC50 [3]: 4.28 µM; Ki [3]: 3.75 µM
